Consider 5 compounds from patent US3975538A, “Miticidally active compositions” (priority 1974, dated 1976).

Structures are written as SMILES.

Assay [1] concerns citrus red mite, Panonychus citri. Nature of the assay: Experiment 1 miticidal test (citrus red mite on potted lemon tree). The format is in vivo. The conditions noted are these: 240 h, larvae and adults, 200 ppm in water, 20 cc spray, 10 days at 28°C, read-out: Evaluation (mortality of mites and eggs). The procedure: In this experiment, approximately 50 larvae and adults of the citrus red mite, Panonychus citri were first released on the leaves of a young lemon tree, with about 10 leaves, growing in a pot (9 cm in diameter). […] Two days later, each potted plant was sprayed with 20 cc of one of these preparations with a spray gun (under 1 kg/cm^2 pressure, 80 cm distance from the plant) in a spray chamber. After the spraying, the pots were placed in a air-conditioned greenhouse (28°C) for 10 days, the number of mites and eggs surviving on the leaves counted.

Assay [2] relates to two-spotted spider mite, Tetranychus urticae. Kind of assay: Experiment 2 miticidal test (two-spotted spider mite on pea seedling). The format is in vivo. The conditions noted are these: 48 h, female adults, 500 ppm in water, 20 cc spray, 2 days at 28°C, read-out: Evaluation (mortality of mites). The protocol:
(§1) Criteria for evaluating effectiveness:
After spraying the pots were placed in a air-conditioned greenhouse (28°C) for 2 days.

For assay [3], the system named is Kanzawa spider mite, Tetranychus kanzawai. Kind of assay: Experiment 3 miticidal test (Kanzawa spider mite on pea seedling). The settings on record: female adults, 500 ppm in water, 20 cc spray, three repeats, read-out: Evaluation (mortality of mites). The format is in vivo.
From the text: as §1
In this experiment, one day after approximately 50 female adults of the Kanzawa spider mite, Tetranychus kanzawai, were placed on the leaves of a seedling of the pea plant (5 days after germination), growing in pots (9 cm in diameter), the plant was sprayed with emulsion of the compound of Formula (I), diluted to 500 ppm in water. […] The test was repeated three times.

Another assay concerns eggs of citrus red mite. Nature of the assay: Experiment 4 ovicidal test (citrus red mite eggs on trifoliate orange). The format is in vivo, Panonychus citri. The settings on record: 500 ppm in water, 20 cc spray, 7 days at 28°C, three repeats. The protocol: as §1
In this experiment, 20 female adults of the citrus red mite were released on the leaves of the potted trifoliate orange (15 cm in height). The pots were then placed in a air-conditioned greenhouse (28°C) for 2 days. Then the adults were removed from the plant and the eggs laid on the leaves were subjected to the ovicidal test. The number of the eggs on each plant was counted prior to the chemical application. […] 20 cc of each compound was sprayed on one of the plants. After spraying, the pots were returned to the air-conditioned greenhouse and kept there for 7 days. Then, by microscopic inspection, the numbers of unhatched eggs, the larvae which died after hatching, and the surviving larvae, respectively, on each plant were counted.

Assay [4] deals with citrus red mite which show resistance to citrazon. Nature of the assay: Experiment 5 test on citrazon-resistant citrus red mite. The settings on record: Panonychus citri, 48 h, read-out: Death rate. The format is in vivo. The protocol:
100 female adults of citrus red mite which show resistance to citrazon were released on the leaves of the potted trifoliate orange (The pot: 9 cm in diameter). 20 cc each of the emulsions 100 prepared in Example 4, of compound No.4 and citrazon (mentioned before) for comparison of different concentrations was sprayed on one of the pots. After spraying the pots were kept in a kasten for 2 days and from the number of the surviving mites the death rates were calculated.

`CCOC(=NOC(=O)c1ccccc1)c1c(OC)ccc2ccccc12` [Control No. 1, ethyl O-benzoyl-2-methoxy-1-naphthohydroxamate]: the mortality at 200 ppm in assay [1] is under 49%. The mortality at 500 ppm in assay [2] and in assay [3] was under 49% in each case. Moreover, the “Evaluation (ovicidal effectiveness)” value in the assay on eggs of citrus red mite is on record as “- (49 % or less)”.

As for `CCOC(=NOC(=O)c1ccccc1)c1c(OC)ccc(Cl)c1OC` [Citrazon, ethyl O-benzoyl-3-chloro-2,6-dimethoxybenzohydroxamate], in assay [4], the mortality at 12.5 ppm turned out to be 19.5%, the mortality at 25 ppm amounted to 25.8%, the mortality at 50 ppm stood at 40.6% and the mortality at 100 ppm amounted to 40.5%. Also, in assay [4], the mortality at 200 ppm stood at 43.5% and the mortality at 400 ppm stood at 68%.

On to `CCOC(=NOC(=O)SC(C)C)c1c(OC)ccc2ccccc12` [compound 13, ethyl O-isopropylthiocarbonyl-2-methoxy-1-naphthohydroxamate], for which the mortality at 200 ppm in assay [1] came out at 100%.

For `CCOC(=O)ON=C(OCC)c1c(OC)ccc2ccccc12` [compound 2, ethyl O-ethoxycarbonyl-2-methoxy-1-naphthohydroxamate], the mortality at 200 ppm in assay [1] is 90 to 99%. Also, the “Evaluation (ovicidal effectiveness)” value in the assay on eggs of citrus red mite was “++ (90 - 99 %)”.

Regarding `CCOC(=NOC(=O)c1ccc(C)cc1)c1c(OC)ccc2ccccc12` [Control No. 2, ethyl 0-(4-methylbenzoyl)-2-methoxy-1-naphthohydroxamate], the mortality at 200 ppm in assay [1] was under 49%. In addition, the mortality at 500 ppm in assay [2] and in assay [3] was under 49% in each case. Besides, the “Evaluation (ovicidal effectiveness)” value in the assay on eggs of citrus red mite was “- (49 % or less)”.
